Results from patent publication US6737383B1, “Herbicidal oxadiazolidines” (priority 1999, dated 2004).

What was measured:
[1] = system: rice; assay: Test B flood test rice; assay type: in vivo, Oryza sativa; details: for Plant response rating, Rice (0 to 10 scale, 0 is no effect, 10 is complete control) / Rice plant response rating (0 to 10 scale, 0 is no effect, 10 is complete control): visual evaluation after twelve to sixteen days; for Rice plant response rating (0 to 10 scale, 0 is no effect, 10 is complete control): under heading Pre-emergence
Procedure, shortened: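 Plants were grown to the 2-leaf stage before treatment with test chemical, then held in a greenhouse for twelve to sixteen days. Injury was visually rated against untreated controls on a 0–10 scale, where 0 is no effect and 10 is complete control.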

[2] = system: wheat; assay: Test B pre/postemergence wheat; assay type: in vivo, Triticum aestivum
Procedure, shortened: (§1)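 Test chemicals in a non-phytotoxic solvent mixture with surfactant were sprayed preemergence onto planted seeds and postemergence onto plants 2 to 18 cm tall (1- to 4-leaf stage). After twelve to sixteen days in a greenhouse, injury was visually rated against untreated controls from 0 (no effect) to 10 (complete control).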

[3] = system: wild oat; assay: Test B pre/postemergence wild oat; assay type: in vivo, Avena fatua
Procedure, shortened: as §1

[4] = system: crabgrass; assay: Test B pre/postemergence crabgrass; assay type: in vivo, Digitaria sanguinalis
Procedure, shortened: as §1

[5] = Rate 62 g/ha, headed Pre-emergence (flood test species), scale 0 to 10 (0 no effect, 10 complete control)
[6] = Rate 125 g/ha, Pre-emergence, flood test species, scale 0 to 10 where 0 is no effect and 10 is complete control
[7] = Rate 250 g/ha, Pre-emergence, flood-test species, scale 0 to 10, 0 is no effect, 10 is complete control
[8] = Rate 500 g/ha, Pre-emergence, flood test species, scale 0 to 10 (0 no effect, 10 complete control)
[9] = Postemergence, Rate 125 g/ha, scale 0 to 10, 0 is no effect, 10 is complete control
[10] = Preemergence, Rate 62 g/ha, scale of 0 to 10 where 0 is no effect and 10 is complete control
[11] = Preemergence, Rate 250 g/ha, scale of 0 to 10 where 0 is no effect and 10 is complete control
[12] = Preemergence, Rate 500 g/ha, scale of 0 to 10 where 0 is no effect and 10 is complete control
[13] = Rate 62 g/ha, Postemergence, scale 0 to 10 (0 no effect, 10 complete control)
[14] = Rate 500 g/ha, Postemergence, scale 0 to 10, 0 no effect, 10 complete control
[15] = Rate 62 g/ha, flood test species, Pre-emergence
[16] = Rate 125 g/ha, flood test species
[17] = Rate 250 g/ha, Pre-emergence (flood test species), scale 0 to 10, 0 is no effect, 10 is complete control
[18] = Rate 500 g/ha, Pre-emergence section of Table B, 0 to 10 scale (0 no effect, 10 complete control)
[19] = Postemergence, Rate 62 g/ha, scale 0 to 10, 0 is no effect, 10 is complete control
[20] = Postemergence, Rate 125 g/ha, scale of 0 to 10 where 0 is no effect and 10 is complete control
[21] = Postemergence, Rate 250 g/ha, scale of 0 to 10, 0 is no effect, 10 is complete control
[22] = Preemergence, Rate 62 g/ha, scale 0 to 10 (0 no effect, 10 complete control)
[23] = Preemergence, Rate 125 g/ha, scale of 0 to 10 where 0 is no effect and 10 is complete control
[24] = Preemergence, Rate 250 g/ha, scale 0 to 10 (0 no effect, 10 complete control)
[25] = Postemergence, Rate 500 g/ha, scale of 0 to 10 where 0 is no effect and 10 is complete control
[26] = Postemergence, Rate 31 g/ha, visual rating, scale 0 to 10 (0 no effect, 10 complete control)
[27] = Postemergence, Rate 250 g/ha, scale 0 to 10
[28] = Preemergence, Rate 250 g/ha, scale 0 to 10, 0 is no effect, 10 is complete control
[29] = Rate 125 g/ha, Postemergence, scale 0 to 10, 0 is no effect, 10 is complete control

Structure (SMILES): Cc1c(-n2c(=O)on(C(=O)N(c3ccc(Cl)cc3)C(C)C)c2=O)ccc2ccccc12 [Compound 336]
- Rice plant response rating [1, 5]: 0
- Rice plant response rating [1, 6]: 0
- Rice plant response rating [1, 7]: 0
- Rice plant response rating [1, 8]: 0
- Plant response rating, Wheat [2, 9]: 0
- Wheat plant response rating [2, 10]: 0
- Wheat plant response rating (0 to 10 scale) ([2]; Preemergence, Rate 125 g/ha): 0
- Wheat plant response rating [2, 11]: 0
- Wheat plant response rating [2, 12]: 0
- Wheat plant response rating [2, 13]: 0
- Plant response rating, Wheat [2, 14]: 0
- Plant response rating, Wild oats [3, 9]: 0
- Wild oats plant response rating [3, 10]: 0
- Wild oats plant response rating (0 to 10 scale) ([3]; Preemergence, Rate 125 g/ha): 0
- Wild oats plant response rating [3, 11]: 0
- Wild oats plant response rating [3, 12]: 0
- Wild oats plant response rating [3, 13]: 0
- Plant response rating, Wild oats [3, 14]: 0
- Plant response rating, Crabgrass [4, 9]: 0
- Crabgrass plant response rating [4, 10]: 0
- Crabgrass plant response rating (0 to 10 scale) ([4]; Preemergence, Rate 125 g/ha): 0
- Crabgrass plant response rating [4, 11]: 0
- Crabgrass plant response rating [4, 12]: 0
- Crabgrass plant response rating [4, 13]: 0
- Plant response rating, Crabgrass [4, 14]: 0

Structure (SMILES): CC(C)N(C(=O)n1oc(=O)n(CNC(=O)c2ccccc2)c1=O)c1ccccc1 [Compound 620]
- Plant response rating, Rice (0 to 10 scale, 0 is no effect, 10 is complete control) [1, 15]: 0
- Rice plant response rating (0 to 10 scale, 0 is no effect, 10 is complete control) [1, 16]: 0
- Rice plant response rating [1, 17]: 0
- Rice plant response rating [1, 18]: 0
- Plant response rating, Wheat [2, 19]: 0
- Plant response rating, Wheat [2, 20]: 0
- Wheat plant response rating [2, 21]: 0
- Wheat plant response rating [2, 22]: 0
- Wheat plant response rating [2, 23]: 0
- Plant response rating, Wheat [2, 24]: 0
- Plant response rating, Wheat [2, 12]: 0
- Plant response rating, Wild oats [3, 19]: 0
- Plant response rating, Wild oats [3, 20]: 0
- Wild oats plant response rating [3, 21]: 0
- Wild oats plant response rating [3, 22]: 0
- Wild oats plant response rating [3, 23]: 0
- Plant response rating, Wild oats [3, 24]: 0
- Plant response rating, Wild oats [3, 12]: 0
- Plant response rating, Crabgrass [4, 19]: 1
- Plant response rating, Crabgrass [4, 20]: 2
- Plant response rating, Crabgrass [4, 25]: 3
- Crabgrass plant response rating [4, 22]: 0
- Crabgrass plant response rating [4, 23]: 0
- Plant response rating, Crabgrass [4, 24]: 0
- Plant response rating, Crabgrass [4, 12]: 6

Structure (SMILES): COCCn1c(=O)on(C(=O)N(c2ccc(F)cc2F)C(C)C)c1=O [Compound 628]
- Plant response rating, Rice (0 to 10 scale, 0 is no effect, 10 is complete control) [1, 15]: 0
- Rice plant response rating (0 to 10 scale, 0 is no effect, 10 is complete control) [1, 16]: 0
- Rice plant response rating [1, 17]: 0
- Rice plant response rating [1, 18]: 0
- Plant response rating, Wheat [2, 19]: 0
- Plant response rating, Wheat [2, 20]: 4
- Wheat plant response rating [2, 21]: 7
- Wheat plant response rating [2, 22]: 3
- Wheat plant response rating [2, 23]: 3
- Plant response rating, Wheat [2, 24]: 7
- Plant response rating, Wheat [2, 12]: 10
- Plant response rating, Wild oats [3, 19]: 0
- Plant response rating, Wild oats [3, 20]: 3
- Wild oats plant response rating [3, 21]: 5
- Wild oats plant response rating [3, 23]: 2
- Plant response rating, Wild oats [3, 24]: 8
- Plant response rating, Wild oats [3, 12]: 10
- Plant response rating, Crabgrass [4, 19]: 8
- Crabgrass plant response rating [4, 21]: 9
- Plant response rating, Crabgrass [4, 25]: 9
- Crabgrass plant response rating [4, 22]: 8
- Crabgrass plant response rating [4, 23]: 8
- Plant response rating, Crabgrass [4, 24]: 9
- Plant response rating, Crabgrass [4, 12]: 10

Structure (SMILES): Cc1nc(C)c(C(C)n2c(=O)on(C(=O)N(c3ccccc3)C(C)C)c2=O)s1 (centres unmarked) [Compound 442]
- Rice plant response rating ([1]; Rate 31 g/ha, Pre-emergence section (flood test species), scale 0 to 10): 0
- Plant response rating, Rice (0 to 10 scale, 0 is no effect, 10 is complete control) [1, 15]: 0
- Rice plant response rating (0 to 10 scale, 0 is no effect, 10 is complete control) [1, 16]: 0
- Rice plant response rating [1, 17]: 0
- Wheat plant response rating [2, 26]: 0
- Wheat plant response rating [2, 27]: 0
- Plant response rating, Wheat [2, 10]: 0
- Plant response rating, Wheat [2, 23]: 0
- Wheat plant response rating [2, 28]: 0
- Wheat plant response rating [2, 13]: 0
- Wheat plant response rating [2, 29]: 0
- Wild oats plant response rating [3, 26]: 0
- Wild oats plant response rating [3, 27]: 0
- Plant response rating, Wild oats [3, 10]: 0
- Plant response rating, Wild oats [3, 23]: 0
- Wild oats plant response rating [3, 28]: 0
- Wild oats plant response rating [3, 13]: 0
- Wild oats plant response rating [3, 29]: 0
- Crabgrass plant response rating [4, 26]: 0
- Crabgrass plant response rating [4, 27]: 0
- Crabgrass plant response rating ([4]; Preemergence, Rate 31 g/ha, visual rating, scale 0 to 10 (0 no effect, 10 complete control)): 5
- Plant response rating, Crabgrass [4, 10]: 7
- Plant response rating, Crabgrass [4, 23]: 8
- Crabgrass plant response rating [4, 28]: 8
- Crabgrass plant response rating [4, 13]: 0
- Crabgrass plant response rating [4, 29]: 0

Structure (SMILES): Cc1ccc(N(C(=O)n2oc(=O)n(-c3ccc4ccccc4c3)c2=O)C(C)C)cc1 [Compound 334]
- Rice plant response rating [1, 5]: 0
- Rice plant response rating [1, 6]: 0
- Rice plant response rating [1, 7]: 0
- Rice plant response rating [1, 8]: 0
- Plant response rating, Wheat [2, 9]: 0
- Wheat plant response rating [2, 10]: 0
- Wheat plant response rating (0 to 10 scale) ([2]; Preemergence, Rate 125 g/ha): 0
- Wheat plant response rating [2, 11]: 0
- Wheat plant response rating [2, 12]: 0
- Wheat plant response rating [2, 13]: 0
- Plant response rating, Wheat [2, 14]: 0
- Plant response rating, Wild oats [3, 9]: 0
- Wild oats plant response rating [3, 10]: 0
- Wild oats plant response rating (0 to 10 scale) ([3]; Preemergence, Rate 125 g/ha): 0
- Wild oats plant response rating [3, 11]: 0
- Wild oats plant response rating [3, 12]: 0
- Wild oats plant response rating [3, 13]: 0
- Plant response rating, Wild oats [3, 14]: 0
- Plant response rating, Crabgrass [4, 9]: 0
- Crabgrass plant response rating [4, 10]: 0
- Crabgrass plant response rating (0 to 10 scale) ([4]; Preemergence, Rate 125 g/ha): 0
- Crabgrass plant response rating [4, 11]: 0
- Crabgrass plant response rating [4, 12]: 0
- Crabgrass plant response rating [4, 13]: 0
- Plant response rating, Crabgrass [4, 14]: 0
